{"source": "patent US11951134B2", "about": "“Cationic platelet lysate compositions and related methods” (North Carolina State University, priority 2019, dated 2024)", "key": {"[1]": {"system": "S. aureus (ATCC 25923) infected tarsocrural joint", "assay": "Equine S. aureus infectious arthritis model (BIO-PLY 5 mL + 500 mg amikacin vs 500 mg amikacin + saline, intra-articular daily for 7 days)", "type": "in vivo, horse", "settings": "end-term (day 24; legend b39: day 23-24); BIO-PLY + amikacin group vs amikacin alone group, n=6 each", "from_the_text": "Subsequently, the in vitro findings were translated into an in vivo equine model of S. aureus-induced infectious arthritis. Using this model, it was hypothesized that the combination of BIO-PLY and amikacin will decrease bacterial burden and improve outcome parameters in an equine S. aureus infectious arthritis model compared to horses treated with amikacin alone. A highly concentrated (>50 fold), pooled PRP-L was generated from 8 healthy donor horses and processed to have the anionic fraction, including fibrinogen, removed and passed through a 10 kDa molecular weight cutoff filter to remove proteins […] termed BIO-PLY as stated above (IACUC protocol #16-189 of NC State University, Raleigh, N.C.). […]\nAll horses received systemic antimicrobials (potassium penicillin and gentamicin) for 10 days post-infection as well as a tapering course of phenylbutazone for the duration of the study. Physical examinations were performed daily and pain scores based on lameness, hock swelling, distal limb swelling, pain to palpation, and presence of heat were calculated at days 0-7, 14 and 21. […] Synovial fluid was collected on day 0-7 and assessed for total protein (TP), total nucleated cell count (TNCC), cellular differential, and bacterial load determination, as well as biomarker analysis (EMD Millipore MILLIPLEX MAP Equine Cytokine/Chemokine Magnetic Bead Panel). […]"}, "[2]": {"system": "all isolates used in this study", "assay": "Antimicrobial susceptibility by microbroth dilution", "type": "cell-based", "from_the_text": "The laboratory strain of Staphylococcus aureus, ATCC 25923, was used to initially screen the different PRP formulations. Significant findings were then validated using clinical isolates derived from cases of equine septic arthritis collected by the University of Pennsylvania School of Veterinary Medicine New Bolton Center Clinical Microbiology Laboratory and processed in accordance with their Standard Operating Procedures. In vitro antimicrobial susceptibility testing and microbial identification was performed using the ARIS Sensititre™ system, using the equine (EQUIN1F) antimicrobial susceptibility panel for veterinary organisms. Bacteria were saved in frozen stocks on glycerol at −80° C. Blood agar plates were streaked from frozen stocks and used for in vitro experiments for a maximum of 1 month. […]\nSynovial fluid pooled from three horses (n=3) was infected at 1×10^5 CFU/mL for Staphylococcus aureus (ATCC 25923) or for each clinical isolate (Staphylococcus aureus, Streptococcus zooepidemicus, Pseudomonas aeruginosa, and Escherichia coli) and incubated for 2 hours at 37° C. in a microaerophilic chamber on a shaker at 120 rpm to allow for […] formation. […] Bacterial load was measured using serial dilutions and plate counting of colony forming units. […]"}}, "data": [{"smiles": "NCC[C@H](O)C(=O)N[C@@H]1C[C@H](N)[C@@H](O[C@H]2O[C@H](CN)[C@@H](O)[C@H](O)[C@H]2O)[C@H](O)[C@H]1O[C@H]1O[C@H](CO)[C@@H](O)[C@H](N)[C@H]1O", "note": "[amikacin]", "values": [{"measurement": "bacteria within the synovial tissue at end-term", "setting": "[1]", "result": "80.95±58.77", "unit": "CFU/g tissue"}, {"measurement": "susceptibility of isolates to amikacin", "setting": "[2]", "result": "susceptible"}]}]}
